Assay results taken from patent publication US20050197356A1, “Non-immunosuppressive immunophilin ligands as neuroprotective and/or neuroregenerative agents” (Wyeth, priority 2004, published 2005).

Legend:
Type in all cases: cell-based, rat
[1] = system: cultured dopaminergic neurons; assay: High-affinity 3H-dopamine uptake after MPP+ induced toxicity in mesencephalic dopaminergic neuron cultures
Experimental: Mesencephalic dopaminergic neuron cultures were prepared as previously described in Pong et al., J Neurochem. 69: 986-994 (1997). Embryonic day 15 (E15) rat fetuses were collected and dissected in ice-cold phosphate-buffered saline (PBS). The ventral piece of tissue compromising the mesencephalic dopaminergic region was dissected out. Dissected pieces of tissue were pooled together and transferred to an enzymatic dissociation medium containing 20 IU/ml papain in Earle's balanced salt solution (Worthington Biochemical, Freehold, N.J., U.S.A.) and incubated for 60 minutes at 37° C. After enzymatic dissociation, the papain solution was aspirated and the tissue mechanically triturated with a fire-polished glass Pasteur pipette in complete medium [equal volumes of minimum essential medium (MEM) and F-12 nutrient mixture (Gibco BRL) supplemented with 0.1 mg/ml apotransferrin and 2.5 μg/ml insulin] containing 2,000 IU/ml DNase and 10 mg/ml ovomucoid protease inhibitor.
For dopamine uptake experiments, single-cell suspensions in complete media were seeded on poly-L-ornithine and laminin coated 24-well plates. The cultures were maintained for seven days prior to experimentation. Cultures were pretreated with various concentrations of the compound of formula (I) (washed with PBS and diluted with media to concentrations of 1 nM to 1000 nM) for 24 hours, then exposed to 10 μM the neurotoxin 1-methyl-4-phenylpyridinium (MPP^+) for 1 hour to assess the neuroprotective effect of the compound of formula (I) in cell culture. Following the 1 hour incubation, media was exchanged three times and fresh compound was added for an additional 48 hours.
More particularly, after 48 hours growth of mesencephalic dopaminergic neuron cultures following MPP^+ exposure, high-affinity ^3H-dopamine uptake was performed using a modified method described by Prochiantz et al., Nature 293: 570-572 (1981). Cultures were washed with pre-warmed phosphate-buffered saline (PBS) containing 5.6 mM glucose and 1 mM ascorbic acid. Cultures were then incubated for 15 minutes at 37° C. with 50 nM ^3H-dopamine (31 Ci/mmol, Du Pont-NEN, Wilmington, Del., U.S.A.). The cultures were washed twice with buffer and lysed with 0.5 N NaOH. The lysate was transferred to a scintillation vial containing Ultima Gold scintillation cocktail and radioactivity was determined with a liquid scintillation counter. Alternatively, culture lysates can be washed twice with buffer, incubated for 2 hours at room temperature with Optiphase Supermix scintillation cocktail (Wallac Scintillation Products, Gaithersburg, Md., USA), and radioactivity measured with a liquid scintillation counter.
MPP^+-induced neurotoxicity in a ^3H-dopamine uptake cell assay was measured. Neuroprotective effects in cell culture were measured by addition of the compound (1 nM to 1000 nM) to the culture in the presence of MPP.

[2] = system: cultured cortical neurons; assay: Neurofilament content in cultured cortical neurons (neurofilament antibody, colorimetric); details: 72 hours
Experimental: (§1) Dissociated cortical neuron cultures were prepared as previously described [Pong et al., Exp Neurol. 2001 September; 171(1):84-97 (2001)]. Briefly, embryonic day 15 rat fetuses were collected and dissected in ice-cold PBS. Dissected cortices were pooled together and transferred to an enzymatic dissociation medium containing papain. After 30 min, the tissue was mechanically triturated with a fire-polished glass Pasteur pipette. Single-cell suspensions in complete media were seeded on poly-L-ornithine and laminin coated 96-well plates. 24 hours later, cultures were treated with various concentrations of compound of formula (I) for 72 hours. The cultures were then fixed and stained with a neurofilament primary antibody and a peroxidase-tagged secondary antibody. A peroxidase substrate (K-Blue Max) was added and the colorimetric change was measure on a colorimetric plate reader.
as §1, with “(Pong” for “[Pong”, “2001).” for “Exp Neurol. 2001 September; 171(1):84-97 (2001)].”, “ploy-L-ornithine” for “poly-L-ornithine”, “compound” for “compound of formula (I)”, “calorimetric” for “colorimetric”

[3] = system: cultured cortical neurons; assay: Neurite outgrowth (ENO algorithm, Cellomics ArrayScan) in cultured cortical neurons; details: 72 hours
Experimental: Dissociated cortical neuron cultures were prepared as previously described (Pong et al., cited above, 2001). Briefly, embryonic day 15 rat fetuses were collected and dissected in ice-cold PBS. Dissected cortices were pooled together and transferred to an enzymatic dissociation medium containing papain. After 30 minutes, the tissue was mechanically triturated with a fire-polished glass Pasteur pipette. Single-cell suspensions in complete media were seeded on poly-L-ornithine and laminin coated 96-well plates. After 24 hours, cultures were treated with various concentrations of the compound of formula I for 72 hours. The cultures were then fixed and stained with an anti-tubulin primary antibody (TUJ-1) and a fluorescent-tagged secondary antibody. Neurite outgrowth was determined by using the Enhanced Neurite Outgrowth (ENO) algorithm with the Cellomics ArrayScan and expressed as total neurite length per cell.

[4] = system: cultured dorsal root ganglia; assay: Neurite outgrowth (ENO algorithm, Cellomics ArrayScan) in cultured dorsal root ganglia; details: 72 hours
Experimental: Dissociated dorsal root ganglia cultures were prepared as previously described [A. Wood et al., “Stimulation of neurite outgrowth by immunophilin ligands: quantitative analysis by Cellomics Array scan” Society for Neuroscience (2004), abstract 104.3] Briefly, postnatal day 3-5 rat pups were euthanized. The spinal columns were removed and individual dorsal root ganglia (DRG) were dissected out. Dissected DRG were pooled together and transferred to an enzymatic dissociation medium containing papain. After 60 minutes, the tissue was mechanically triturated with a fire-polished glass Pasteur pipette. Single-cell suspensions in complete media were seeded on poly-L-ornithine and laminin coated 96-well plates. After 24 hours, cultures were treated with various concentrations of the compound of formula I for 72 hours. The cultures were then fixed and stained with an anti-tubulin primary antibody (TUJ-1) and a fluorescent-tagged secondary antibody. Neurite outgrowth was determined by using the Enhanced Neurite Outgrowth (ENO) algorithm with the Cellomics ArrayScan and expressed as total neurite length per cell.

Molecule: C[n+]1ccc(-c2ccccc2)cc1 [MPP^+, 1-methyl-4-phenylpyridinium, reference compound]
- 3H-DOPAMINE UPTAKE (% UNTREATED CONTROL) ([1]; 10 uM MPP+ alone, 1 hour exposure, uptake 48 hours later): 40%

Molecule: CC/C1=C\CC(/C(C)=C/C(C)C(C)O)OC(=O)C2CCCCN2C(=O)C(=O)C2(O)OC(CCC2C)CC(O)C(C)C(O)CC(O)CC(O)/C(C)=C/C(C)CC(C)C1O (centres unmarked) [meridamycin]
- 3H-DOPAMINE UPTAKE (% UNTREATED CONTROL) ([1]; 1 nM meridamycin, 24 h pretreatment, 10 uM MPP+ 1 h, compound further 48 h): 47%
- 3H-DOPAMINE UPTAKE (% UNTREATED CONTROL) ([1]; 10 nM meridamycin, 24 h pretreatment, 10 uM MPP+ 1 h, compound further 48 h): 51%
- 3H-DOPAMINE UPTAKE (% UNTREATED CONTROL) ([1]; 100 nM meridamycin, 24 h pretreatment, 10 uM MPP+ 1 h, compound further 48 h): 51%
- 3H-DOPAMINE UPTAKE (% UNTREATED CONTROL) ([1]; 1000 Nm meridamycin, 24 h pretreatment, 10 uM MPP+ 1 h, compound further 48 h): 64%
- EC50 ([1]; Rattus norvegicus, Neuron, relative to maximum protection (84% uptake) afforded by 10 ng/mL GDNF, read-out: EC50 of neuroprotection against MPP+-induced neurotoxicity): 555 nM
- NEUROFILAMENT CONTENT (FOLD-INCREASE ABOVE UNTREATED CONTROL) ([2]; 10 nM meridamycin): 1.71 fold
- NEUROFILAMENT CONTENT (FOLD-INCREASE ABOVE UNTREATED CONTROL) ([2]; 100 nM meridamycin): 2.24 fold
- NEUROFILAMENT CONTENT (FOLD-INCREASE ABOVE UNTREATED CONTROL) ([2]; 1 μM meridamycin): 2.32 fold
- NEUROFILAMENT CONTENT (FOLD-INCREASE ABOVE UNTREATED CONTROL) ([2]; 10 μM meridamycin): 2.56 fold
- EC50 ([2]; Rattus norvegicus, Cortical neurone, cultured cortical neurons, read-out: EC50 of increased neuronal survival (neurofilament content)): 12 nM
- Total Neurite Length (% Above Control) ([3]; 10 nM): 19%
- Total Neurite Length (% Above Control) ([3]; 100 nM): 40%
- Total Neurite Length (% Above Control) ([3]; 1 μM): 113%
- Total Neurite Length (% Above Control) ([3]; 10 μM): 152%
- Total Neurite Length (% Above Control) ([4]; 10 nM): 4%
- Total Neurite Length (% Above Control) ([4]; 100 nM): 9%
- Total Neurite Length (% Above Control) ([4]; 1 μM): 14%
- Total Neurite Length (% Above Control) ([4]; 10 μM): 24%

B1: GDNF: GDNF, 10 ng/mL, positive control that afforded maximum protection (protein, UniProt P39905 78-211, looked up)
Glial cell line-derived …: SPDKQMAVLPRRERNRQAAAANPENSRGKGRRGQRGKNRGCVLTAIHLNVTDLGLGYETKEELIFRYCSGSCDAAETTYDKILKNLSRNRRLVSDKVGQACCRPIAFDDDLSFLDDNLVYHILRKHSAKRCGCI
- maximum protection (3H-dopamine uptake) ([1]; 10 ng/mL GDNF, MPP+-induced neurotoxicity): 84%
